Measured values published in patent publication US11229664B2, “Treatment of myelosuppression” (priority 2012, dated 2022).
pKd: −log10 of the molar value. Where “and” joins values, the source holds several entries; their conditions need not be identical. Identical values can stand only once. Like-named read-outs stand apart in the source and are kept apart here.

Tests used:
[1] = system: Human ovarian cancer cell line A2780; assay: A2780 human ovarian cancer xenograft model: tumor weight; format: in vivo, athymic female mice; design: key to Mouse status printed in place of tumor weight: FD = Found Dead; TS = Terminal Sacrifice; conditions: for Mouse status printed in place of tumor weight: Groups 2 and 3
Protocol: (§1) ODSH (50 mg/mL stock concentration) was made by Pyramid Laboratories, Inc. and stored at room temperature until use. As described further below, ODSH was administered either intravenously (IV), at a dose of 48 mg/kg and volume of 10 mL/kg, or subcutaneously (SC) at a dose of 24 mg/kg and volume of 5 ml/kg. Carboplatin obtained from a clinical supplier was stored at 4° C. until use. Carboplatin was administered by intraperitoneal injection (IP) at a dose of 80 mg/kg and volume of 10 mL/kg. Saline solution (0.9% NaCl) was used as a vehicle control for ODSH and administered by the same routes and in the same volumes as ODSH.
(§2) Human ovarian cancer cell line A2780 was used in the murine xenograft experiments as follows. Approximately 5×10^6 A2780 cells were used per mouse, injected subcutaneously into the right flank in 0.1 mL of 50% Matrigel/50% media. The study was initiated when tumors reached a size of 90-130 mg. 40 mice were used, 10 per treatment regimen. The mice were normal athymic female mice, aged 6-7 weeks, housed in microisolator cages and maintained under pathogen-free conditions. Tumor and body weights were measured three times per week.
(§3) Four treatment groups were studied.

[2] = A2780 xenograft study: body weight; format: in vivo, athymic female mice; conditions: Group 3: 80 mg/kg IP QD 1, 8, 15, individual mice, 80 mg/kg
Protocol: as §1, §2, §3

[3] = for Deaths: N = 10 per group
Protocol: All experiments were conducted on female athymic nude mice (Hsd:Athymic Nude-Foxn1nu) supplied by Harlan (Indianapolis, Ind.). Mice were received at four weeks of age, 12-15 grams in weight, and were acclimated for seven days prior to handling. The mice were housed in microisolator cages (Lab Products, Seaford, Del.) and maintained under specific pathogen-free conditions. All procedures were carried out under appropriate institutional guidelines for animal care.
Seven days following inoculation, tumors were measured using calipers and tumor weight was calculated using the animal study management software. […] Body weights were recorded when the mice were randomized and were taken twice weekly thereafter in conjunction with tumor measurements, on each of Days 1, 4, 8, 11, 15, 18, 22, 26, 30, 33, and 36.
The study was terminated when the vehicle control reached an endpoint of 1500 mg, on Day 36.

[4] = system: BxPC-3 pancreas tumor cell line; assay: BxPC-3 human pancreas tumor xenograft model: tumor weight, tumor growth inhibition (TGI); format: in vivo, female athymic nude mice
Protocol: Compounds tested in the experiment were as follows. ODSH was made by Pyramid Laboratories, Inc. (Costa Mesa, Calif.). ODSH was provided at a stock concentration of 50 mg/ml and stored at room temperature until use. ODSH was diluted in a 0.9% NaCl solution (B. Braun Medical Inc., Irvine, Calif.) to a concentration of 2.4 mg/ml to deliver 24 mg/kg, in a 10 ml/kg dose volume when administered intravenously. A concentration of 4.8 mg/ml was formulated to deliver a 24 mg/kg dose at a 5 ml/kg dose volume when administered subcutaneously. ODSH was formulated fresh prior to each dose.
Nab-paclitaxel was manufactured by Abraxis BioScience LLC (Bridgewater, N.J.) and diluted in a 0.9% NaCl solution to a concentration of 1.5 mg/ml to deliver 15 mg/kg, in a 10 ml/kg dose volume. All standard agent preparations were made fresh prior to their administration.
BxPC-3 cells were obtained and prepared as follows. The BxPC-3 pancreas tumor cell line was received from American Type Culture Collection (ATCC, Manassas, Va.). Cultures were maintained in RPMI 1640 medium (Hyclone, Logan, Utah) supplemented with 5% fetal bovine serum. The cells were housed in a 5% CO2 atmosphere. The cultures were expanded in tissue culture flasks at a 1:3 split ratio until a sufficient amount of cells were harvested.
BxPC-3 Human Pancreas Tumor Xenograft Model: Female athymic nude mice per treatment condition were inoculated subcutaneously in the right flank with 0.1 ml of a 50% RPMI 1640/50% Matrigel™ (BD Biosciences, Bedford, Mass.) mixture containing a suspension of BxPC-3 tumor cells (approximately 5×10^6 cells/mouse).
Study Director V.1.7.54k (Study Log).
Mean tumor growth inhibition (TGI) was calculated utilizing Formula A below (deaths were not included in the TGI calculations).
All statistical analyses in the xenograft study were performed with GraphPad Prism® v4 software.

anticoagulant activity = conditions: cited from earlier work
Xa = Xa (Homo sapiens, UniProt P00742); conditions: cited from earlier work
IIa = IIa (Homo sapiens, UniProt P00734+P01008); conditions: cited from earlier work
anti-thrombin III = anti-thrombin III (Homo sapiens, UniProt P01008); conditions: cited from earlier work
[5] = Total deaths on or before Day 26

Chain of anti-thrombin III (P01008 33-464, species assumed): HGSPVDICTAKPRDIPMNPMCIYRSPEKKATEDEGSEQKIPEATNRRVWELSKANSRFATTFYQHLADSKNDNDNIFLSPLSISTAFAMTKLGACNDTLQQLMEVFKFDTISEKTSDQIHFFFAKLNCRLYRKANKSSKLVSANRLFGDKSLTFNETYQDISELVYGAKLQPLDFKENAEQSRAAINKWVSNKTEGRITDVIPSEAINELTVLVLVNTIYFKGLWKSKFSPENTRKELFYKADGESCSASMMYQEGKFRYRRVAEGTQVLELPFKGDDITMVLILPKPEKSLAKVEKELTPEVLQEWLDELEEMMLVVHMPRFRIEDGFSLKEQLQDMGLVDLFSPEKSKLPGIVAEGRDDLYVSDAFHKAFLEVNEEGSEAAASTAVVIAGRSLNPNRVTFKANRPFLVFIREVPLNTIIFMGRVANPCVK
Chain of Xa (P01008 33-464 partner): as the sequence (P01008 33-464, species assumed) above
Chain of Xa (P00742 235-488 limits assumed): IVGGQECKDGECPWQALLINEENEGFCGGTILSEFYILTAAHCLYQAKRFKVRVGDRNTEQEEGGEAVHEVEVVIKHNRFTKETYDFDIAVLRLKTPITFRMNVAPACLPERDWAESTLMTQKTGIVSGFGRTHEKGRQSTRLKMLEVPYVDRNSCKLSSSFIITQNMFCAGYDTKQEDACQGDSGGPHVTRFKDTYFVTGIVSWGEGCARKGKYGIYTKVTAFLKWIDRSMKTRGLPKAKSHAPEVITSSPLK

## N.N.O=C([O-])C1(C(=O)[O-])CCC1.[Pt+2] [Carboplatin, reference compound]
[1]; Day 1
  Tumor weight, Mean: 107.3 mg
  Tumor weight, Median: 105.6 mg
[1]; Day 1, Mouse 1-10
  Tumor weight, individual mice: 104 mg and 105 mg and 106 mg and 110 mg and 113 mg and 116 mg and 127 mg and 94 mg and 96 mg and 102 mg
[1]; Day 4
  Tumor weight, Mean: 148.2 mg
  Tumor weight, Median: 144.5 mg
[1]; Day 4, Mouse 1-10
  Tumor weight, individual mice: 108 mg (2×) and 175 mg and 199 mg and 142 mg and 163 mg and 147 mg and 194 mg and 137 mg and 109 mg
[1]; Day 6
  Tumor weight, Mean: 213.0 mg
  Tumor weight, Median: 215.6 mg
[1]; Day 6, Mouse 1-10
  Tumor weight, individual mice: 114 mg and 264 mg and 239 mg and 223 mg and 300 mg and 208 mg and 256 mg and 200 mg and 157 mg and 169 mg
[1]; Day 8
  Tumor weight, Mean: 356.5 mg
  Tumor weight, Median: 364.2 mg
[1]; Day 8, Mouse 1-10
  Tumor weight, individual mice: 148 mg and 466 mg and 358 mg and 371 mg and 605 mg and 306 mg and 386 mg and 419 mg and 245 mg and 262 mg
[1]; Day 11
  Tumor weight, Mean: 483.1 mg
  Tumor weight, Median: 508.5 mg
[1]; Day 11, Mouse 1-10
  Tumor weight, individual mice: 103 mg and 539 mg and 499 mg and 419 mg and 813 mg and 555 mg and 542 mg and 517 mg and 442 mg and 402 mg
[1]; Day 14
  Tumor weight, Mean: 719.3 mg
  Tumor weight, Median: 750.3 mg
[1]; Day 14, Mouse 1-10
  Tumor weight, individual mice: 96 mg and 875 mg and 799 mg and 628 mg and 1,093 mg and 795 mg and 975 mg and 587 mg and 706 mg and 640 mg
[1]; Day 18
  Tumor weight, Mean: 984.1 mg
  Tumor weight, Median: 1,051.0 mg
[1]; Day 18, Mouse 1-10
  Tumor weight, individual mice: 84 mg and 1,349 mg and 1,218 mg and 713 mg and 1,806 mg and 1,160 mg and 1,168 mg and 942 mg and 730 mg and 671 mg
[1]; Day 21
  Tumor weight, Mean: 1,327.3 mg
  Tumor weight, Median: 1,328.6 mg
[1]; Day 21, Mouse 1-10
  Tumor weight, individual mice: 112 mg and 1,790 mg and 1,596 mg and 834 mg and 2,675 mg and 1,626 mg and 1,439 mg and 1,218 mg and 941 mg and 1,040 mg
[1]; Day 25
  Tumor weight, Mean: 1,761.3 mg
  Tumor weight, Median: 1,921.0 mg
[1]; Day 25, Mouse 1-10
  Tumor weight, individual mice: 2,403 mg and 2,127 mg and 1,109 mg and 1,921 mg and 1,246 mg
[1]; Day 25, individual mice
  Mouse status printed in place of tumor weight: TS
[1]; Day 28
  Tumor weight, Mean: 2,243.0 mg
  Tumor weight, Median: 2,461.0 mg
[1]; Day 28, Mouse 1-10
  Tumor weight, individual mice: 2,877 mg and 2,599 mg and 1,539 mg and 2,461 mg and 1,739 mg
[1]; Day 28, individual mice
  Mouse status printed in place of tumor weight: TS
[2]; Day 1 (baseline)
  Individual weights, Day 1 Weight: 23.2 g and 20.6 g and 22.6 g and 21.7 g and 20.7 g and 22.4 g and 19.7 g and 20.3 g and 21.6 g and 22.2 g
[2]; Day 4
  Day 4 Weight change: −2.6% and −5.3% and −4.4% and −3.2% and 1.9% and −0.4% and −5.6% and −5.9% and −2.3% and −1.8%
  Individual weights, Day 4 Weight: 22.6 g and 19.5 g and 21.6 g and 21.0 g and 21.1 g (2×) and 22.3 g and 18.6 g and 19.1 g and 21.8 g
[2]; Day 6
  Day 6 Weight change: −3.0% (2×) and −4.9% and 1.3% and −1.4% and 3.91% and −0.4% and −4.4% and −3.7% and −3.2%
  Individual weights, Day 6 Weight: 22.5 g and 19.6 g and 22.9 g and 21.4 g and 21.5 g (2×) and 22.3 g and 19.1 g and 19.4 g and 20.8 g
[2]; Day 8
  Day 8 Weight change: 2.2% (2×) and 0.5% (2×) and 6.2% and 1.4% and 5.3% and 1.5% and −1.0% and −1.4%
  Individual weights, Day 8 Weight: 23.7 g and 20.7 g and 24.0 g and 22.0 g and 23.8 g and 22.9 g and 20.0 g and 20.1 g and 21.3 g and 22.3 g
[2]; Day 11
  Day 11 Weight change: −7.3% and −4.9% and 0.9% and −5.5% and 2.4% and −3.6% and −5.1% and −6.4% and −11.1% and −7.7%
  Individual weights, Day 11 Weight: 21.5 g and 19.6 g and 22.8 g and 20.5 g (2×) and 21.2 g and 21.6 g and 18.7 g and 19.0 g and 19.2 g
[2]; Day 14
  Day 14 Weight change: −2.2% and 1.0% and 2.7% and −0.5% and 9.7% and 3.1% and −1.5% and −3.0% and −10.6% and −9.5%
  Individual weights, Day 14 Weight: 22.7 g (2×) and 20.0 g and 23.2 g and 21.6 g and 23.1 g and 19.4 g and 19.7 g and 19.3 g and 20.1 g
[2]; Day 18
  Day 18 Weight change: −4.3% and −1.9% and −5.8% and −10.6% and 6.3% and 4.0% and −8.6% and −7.9% and −17.1% and −9.0%
  Individual weights, Day 18 Weight: 22.2 g and 20.2 g (2×) and 21.3 g and 19.4 g and 22.0 g and 23.3 g and 18.0 g and 18.7 g and 17.9 g
[2]; Day 21
  Day 21 Weight change: −0.4% and 3.9% and −4.9% and −8.3% and 13.5% and 7.1% and −8.6% (2×) and −5.4% and −15.7%
  Individual weights, Day 21 Weight: 23.1 g and 21.4 g and 21.5 g and 19.9 g and 23.5 g and 24.0 g and 18.0 g and 19.2 g and 18.2 g and 20.3 g
[2]; Day 25
  Day 25 Weight change: 8.3% and −3.5% and −6.9% and −2.0% and −8.1%
  Individual weights, Day 25 Weight: 22.3 g and 21.8 g and 20.2 g and 19.9 g and 20.4 g
[2]; Day 28
  Day 28 Weight change: 11.7% and −1.8% and −2.8% and 3.0% and −8.6%
  Individual weights, Day 28 Weight: 23.0 g and 22.2 g and 21.1 g and 20.9 g and 20.3 g

## Nc1ccn([C@@H]2O[C@H](CO)[C@@H](O)C2(F)F)c(=O)n1 [Gemcitabine]
[3]; [5]
  Deaths: 0
[3]; Total deaths on or before Day 36
  Deaths: 0
[3]; mouse, in vivo
  Day by which the mice recovered their weight: ≤ 18 days
  Day on which maximum weight loss was reached: 11 days
  Maximum weight loss: 8.7%
  Starting Weight: 22.48 g

## O=C1[O][Pt]2([NH][C@@H]3CCCC[C@H]3[NH]2)[O]C1=O [Oxaliplatin, reference compound]
[4]; ANOVA with Tukey's Multiple Comparison Test, BxPC-3 xenograft
  Difference in tumor weight compared to vehicle control, Day 26: No significant difference
[4]; Day 26, Group 3: oxaliplatin 10 mg/kg IV wkly x4 (alone to Day 26), from Day 26 gemcitabine 80 mg/kg IP + nab-paclitaxel 15 mg/kg IV
  Tumor weight, Mean: 635.0 mg
[4]; Day 26 vs Day 1, compared to vehicle control, BxPC-3 xenograft, ODSH 24 mg/kg BID, oxaliplatin 10 mg/kg, gemcitabine 80 mg/kg (Table 1)
  TGI (mean tumor growth inhibition), Day 26: 8.0%
[4]; Table 14, treatment administered until Day 26
  Day 26 Tumor Weight: 635.0 ± 52.3 mg
[3]; Day 1
  Average Weight: 20.82 g
[3]; Day 4
  % Weight Loss or Gain: −2.02%
[3]; Day 8
  % Weight Loss or Gain: −0.82%
[3]; Day 11
  Average Weight: 20.12 g
[3]; Day 15
  % Weight Loss or Gain: −0.05%
  Average Weight: 20.81 g
[3]; Day 18
  % Weight Loss or Gain: −1.78%
[3]; [5]
  Deaths: 0
[3]; group mean body weight at start, dose, schedule and route per group as in table
  Starting Weight: 20.82 g
[3]; ten mice per group, BxPC-3 xenograft study
  Mice with bruising on the tails or abdomen (site of injection): One mouse

## unfractionated heparin
Anticoagulant activity
  Anticoagulant activity, USP anticoagulant assay: 165-190 U/mg
Xa
  anti-Xa activity: 165-190 U/mg
IIa
  anti-IIa activity: 165-190 U/mg
anti-thrombin III
  Kd, affinity for anti-thrombin III: 22 µg/mL
anti-thrombin III; read-out: Kd, affinity for anti-thrombin III
  pKd: 5.81
